Among the data in a melting point compilation (Tetko et al.; mined from patent text by program, amines drawn as free bases though some values may be those of a salt) are melting point values, retold here.

A word on the melting point: it is the temperature of the solid-liquid transition.

Turning to `CCCCCC[C@@H](C)Oc1cc2sc(C(=O)OC)c(O)c2cc1[N+](=O)[O-]`, the melting point is 54 to 55 °C.

Compound `O=C1CCCc2nc3ccccc3c(NCc3ccc(C(F)(F)F)cc3)c21` returned a melting point of 174 to 176 °C.

In turn, `CC(c1ccccc1)c1ccc(N)c([N+](=O)[O-])c1` (centres undefined) showed a melting point of 96 to 98 °C.

`FC(F)(F)c1ccc(/C=C/c2nc(COc3cccc(CCCn4ccnn4)c3)co2)cc1`: the melting point fell in the range of 115 to 116 °C.

`CN1C[C@H](CN2CCN(C(c3ccccc3)c3ccccc3)CC2)C=C2c3cccc4c3c(cn4C)C[C@H]21` yielded a melting point of 172 to 175 °C.

With `O=C(COc1ccc(CN2CCCC2)cc1)Nc1ccc(Br)cc1`, the melting point is 143 to 145 °C.

On to `CCCCC[C@H]1CC[C@H](CCc2ccc(O)c(C#N)c2C#N)CC1`, for which the melting point was in the range of 100 to 102 °C.

Turning to `O=C(CCl)CCCCc1ccc(CCCCC(=O)CCl)cc1`, the melting point was in the range of 86 to 87 °C.

Compound `O=C(O)CC(Sc1ccccc1)c1ccc(Cl)cc1` (centres undefined) showed a melting point of 99 to 102 °C.

With `Cc1ccc(S(=O)(=O)OCCn2c([N+](=O)[O-])cnc2C=CN(C)C)cc1`, the melting point fell in the range of 116 to 118 °C.

In turn, `COc1ccc2cc(SCCC(=O)O)n(C)c2c1` showed a melting point of 120 to 122 °C.

For the compound `C[C@H]1[C@H](O)C2(CC2)C(=O)N1c1ccc(C#N)c(Cl)c1`, the melting point was 169 to 172 °C.

As to `CN1C(=O)[C@H](NC(=O)c2ccccc2)N=C(c2ccccc2)c2ccccc21`, the melting point lay within 224 to 225 °C.

`Cc1ccc(CNC(=O)c2sc(N3CCN(Cc4ccccc4)C3=O)nc2C)o1`: the melting point is 138 to 139 °C.

For the compound `CC(C)(Oc1ccc(C2CCOCC2)cc1Cl)C(=O)O`, the melting point is 141 °C.

The compound `CCc1c(CO)[nH]c(=O)c(I)c1Oc1cc(C)cc(C)c1` yielded a melting point of 70 °C.

On to `Clc1cccc(-c2cn3c(n2)sc2ccccc23)c1`, for which the melting point was in the range of 173 to 175 °C.

Take `O=c1c2ccccc2cc(N2CCCCC2)c2ccccc12`: the melting point was in the range of 103 to 105 °C.

In turn, `CCc1oc2ccccc2c1C(=O)NCc1ccc2cc(O)ccc2c1` had a melting point of 203 to 205 °C.

For the compound `CNC(=O)C(=O)c1ccccc1Oc1ccccc1`, the melting point was in the range of 94 to 95 °C.

The compound `CC(=O)c1ccncc1OC1SCC(O)C(O)C1O` (centres undefined) yielded a melting point of 163 °C.

Compound `OC(c1cccs1)C1CCCCC1` (centres undefined) yielded a melting point of 90 to 92 °C.

As to `O=c1oc2ccc(Cl)cc2c(O)c1CCO`, the melting point lay within 185 to 186 °C.

The compound `Nc1ncccc1-c1nc2cc(Br)cnc2n1-c1ccc(CNC(=O)c2ccccc2)cc1` gave a melting point of 195 to 197 °C.

For `N#CN1CCC2(CC1)CN(c1ccc(Cl)cc1)c1ccccc12`, the melting point fell in the range of 178 to 180 °C.

In turn, `Nc1nc2ccccc2c2c1ncn2CCOCCCc1ccccc1C(=O)O` returned a melting point of 186 to 188 °C.

Compound `CC(=O)NC[C@H]1CN(c2ccc3c(c2)CCC(C)N3)C(=O)O1` (some centres undefined) had a melting point of 158 to 159 °C.

Turning to `CCOC(=O)C1=C(C)NC(CSc2ncccn2)=C(C(=O)OCC)C1c1cccc([N+](=O)[O-])c1` (centres undefined), the melting point lay within 115 to 117 °C.

Compound `O=C1CCC(N2C(=O)c3ccc(CNC(=O)C4CC4)cc3C2=O)C(=O)N1` (centres undefined) registered a melting point of 163 to 165 °C.

In the case of `O[C@H]1CN(Cc2ccccc2)CC[C@@H]1c1ccc(Br)cc1` (racemic), the melting point fell in the range of 125 to 129 °C.

As for `CCCCc1nc2c(N)nc3ccccc3c2n1CCCC(=O)c1ccccc1`, the melting point fell in the range of 178 to 180 °C.

`CN(C)C(=O)C(C)(C)n1ccc(-c2cc(Cl)ccc2Cl)n1` gave a melting point of 94 to 96 °C.

In turn, `O=C(Cn1c(=O)[nH]c2ccccc21)c1c(-c2ccccc2)nc2ccccn12` showed a melting point of 233 to 235 °C.

As for `CCN(CC)CCNC(=O)c1cccc2cc3cccc(I)c3nc12`, the melting point lay within 64 to 66 °C.

With `CNCCCNc1ccc2c(NC(=O)CC34CC5CC(CC(C5)C3)C4)c(C)ccc2n1`, the melting point is 217 to 224 °C.

`Cc1ccc(S(=O)(=O)C(=CNc2ccc(Br)cn2)C(=O)c2ccccc2)cc1` yielded a melting point of 205 °C.

In the case of `CC(C)(CN)c1ccc(C(=O)Nc2cn3cc(-n4ccnc4)ccc3n2)cc1`, the melting point lay in the range of 258 to 260 °C.

`N#Cc1cc2ccccc2cc1O` had a melting point of 188 to 189 °C.

Compound `CN(C)C(c1ccccc1)c1cc(C(C)(C)C)cc(C(C)(C)C)c1O` (centres undefined) gave a melting point of 120 to 123 °C.

In turn, `COC(=O)CCCCOc1ccc2nc3[nH]c(=O)n(C)c3cc2c1` registered a melting point of 223 to 225 °C.

In the case of `N#Cc1ccc(Nc2nc(NCc3ccco3)nc(Nc3ccc(O)cc3)n2)cc1`, the melting point lay in the range of 62 to 65 °C.

In turn, `CC(=O)NCCC1CNc2ccc3c(c21)CCCO3` (centres undefined) displayed a melting point of 137 to 138 °C.

Turning to `CCN1CCNC(=O)c2ccc(Nc3ncc(Cl)c(Nc4ccccc4C(=O)NC)n3)cc21`, the melting point was 168 to 171 °C.

The compound `COC(=O)CCCc1ccc(C(=O)CCCc2ccccc2)cc1` yielded a melting point of 61 to 62 °C.

For the compound `Cc1cc(Cn2nc(C(F)(F)C(F)(F)F)nc2C(F)(F)F)ccc1NC(=O)c1cccc(Cl)c1C(=O)NC(C)(C)C=NO`, the melting point lay in the range of 203 to 206 °C.

As for `CCCCOC(=O)NCCc1nc(-c2ccc(-c3ccccc3)cc2)c(C)[nH]1`, the melting point was 143 to 144 °C.

For `OC1CSC(Oc2ccc(-c3ccoc3)cc2F)C(O)C1O` (centres undefined), the melting point came out at 155 °C.

In turn, `COc1cc2c(cc1OC)CN(CC(O)c1ccc([N+](=O)[O-])cc1)CC2` (centres undefined) came in with a melting point of 130 °C.

In turn, `CN(C)c1noc(-c2cc(C(C)(C)C)c(O)c(C(C)(C)C)c2)n1` came in with a melting point of 135 to 138 °C.

Turning to `O=C(OCC1CC1)c1ncn2c1[C@@H]1CCCN1C(=O)c1c(Cl)cccc1-2`, the melting point fell in the range of 195 to 196 °C.

Regarding `Cn1ncc(N2CCCC2)c(-c2ccccc2C=NO)c1=O`, the melting point was 239 °C.

The compound `O=C(N[C@@H](Cc1c[nH]c2ccccc12)C(=O)O)C(CS)C(F)(F)F` (some centres undefined) displayed a melting point of 144 to 147 °C.

`COc1ccc(-c2nn(CC3CC3)c(=O)cc2-c2ccc(OC)c(F)c2)cc1` had a melting point of 135 to 136 °C.

The compound `COc1ccc(C(=O)COc2ccc3oc(C(=O)c4ccc(OC)cc4)c(C)c3c2)cc1` returned a melting point of 155 to 157 °C.

`CCCc1c(CSc2nnc(SCc3ccc(OCC(=O)O)cc3)s2)ccc(C(C)=O)c1O` came in with a melting point of 131 to 134 °C.

The compound `Nc1cc(C(=O)O)cc(OCc2ccccc2)c1Cc1ccccc1` came in with a melting point of 208 to 210 °C.

In turn, `CS(=O)c1ccc(-c2coc3ccc(-c4nnc(N)o4)cc23)cc1Cl` (centres undefined) displayed a melting point of 266 to 267 °C.

As for `O=C(CCCN1CC=C(c2noc(C3CC3)n2)CC1)c1ccc(F)cc1`, the melting point was 67 to 68 °C.

Consider `COc1ccc(CNC(=O)n2cc(F)c(=O)[nH]c2=O)c(OC)c1`, for which the melting point was found to be 154 °C.

Turning to `C=CCOc1ccc(C(=O)C=Cc2ccc(OC)cc2OC)cc1`, the melting point was in the range of 74.5 to 75 °C.

The compound `CON=C(C)c1ccc(NS(C)(=O)=O)c(Sc2ccc(F)cc2F)c1` had a melting point of 110 to 111 °C.

For the compound `COc1c(N2C[C@H]3CC=C[C@@]3(N)C2)c(F)cc2c(=O)c(C(=O)O)cn([C@@H]3C[C@@H]3F)c12`, the melting point fell in the range of 206 to 208 °C.

For the compound `ON=CCOc1ccc(Oc2ccccc2)cc1`, the melting point is 102 to 105 °C.

In turn, `COC(=O)c1ccc(C#N)c(OC)n1` came in with a melting point of 125 °C.
